In patent publication US8779004B2, “Stable emulsion formulations” (Amgen, Inc., priority 2006, dated 2014):
Values after ≈ are worked out from the molar mass of the structure shown. Values belong to the compound of their own block, whether it stands above or below them.

Key:
[1] = tested on: rabbit ear vein; experiment: Acute local venous toxicity / irritation in the rabbit ear vein (REV); assay type: in vivo; parameters: Erythema / Edema: scale not given here
Text: This Example illustrates the protective effect of the formulations of the invention as measured by irritation in the rabbit ear vein (REV). A typical protocol for evaluation of the local tolerance for formulations was as follows.
Dosing of animals. The rabbits used were male New Zealand rabbits weighing approximately 2.5 to 4 kg. The rabbits were acclimatized for a period of 10 days following receipt before the start of the study. The rabbits were randomized into groups based on the number of formulations to be studied. Typically 3 rabbits were used per group.
For each group of rabbits, the formulation containing the drug to be tested was dosed in the right marginal ear vein, with the corresponding placebo being dosed at the same time in the left marginal ear vein. The placebos were prepared such that they matched the formulation composition, and the technique of dosing for the drug formulations and the placebo formulations were kept the same. Typical dosing volumes ranged from 1 mL/kg to 5 mL/kg. The formulations were either dosed as (a) bolus injection wherein the entire dosing volume was administered within 5 minutes; (b) 30 minute infusion; or (c) a 2 hour infusion. The formulations were administered through appropriately sized syringes and catheters. The injection sites were marked with indelible ink for identification at each observation period. The rabbits were dosed based upon the Day 1 body weight.
Observation of animals. Each animal was observed cage side at least twice daily for mortality/morbundity. Each animal received a detailed clinical observation once prior to randomization, once prior to dosage administration and once daily thereafter.
Any abnormalities were recorded as they were observed. Observations for local irritation were scored according to the following scale
At each interval the area of irritation (if present) was also measured. The actual length and width in mm was recorded.
On day 3 the animals were euthanized and the tissues from the Pinna of the left and right ear, and any gross lesions (if present) of the ear or ear vein were collected. Histopathology was performed on the collected tissues. After fixation, the pinna was tripped into a total of 4 sections of 1 cm each; one of which included the deposition site (location of the end of the catheter in the ear) and one from approximately 1-, 2-, and 3-cm downstream from the deposition site. Each section included skin, cartilage, vein and other soft tissue. These tissues were then embedded in paraffin, sectioned and stained with hematoxylin and eosin, and examined via light microscopy.

[2] = Solubility of calcimimetics in oil phases (RP-HPLC); assay type: physicochemical; conditions: long-chain oil phases; for solubility at 18 h: oil or lipid, thermodynamic from solid
Experimental: The solubility measurements of the compounds were prepared by the addition of 1 g of drug substance to two milliliters of oil into a Wheaton 5 mL vial. The headspace was sparged with nitrogen, and enclosed with a West 4405/50 gray Teflon coated stopper and manually sealed by an aluminum overseal. The preparations were repeated again with the oils containing either purified egg or soy lecithin. All labeled vials were shaken at room temperature for eighteen hours on a platform shaker. After eighteen hours, the samples were diluted in mobile phase, and analyzed by the RP-HPLC method. Table 2 summarizes solubility results (expressed in mg/mL) of cinacalcet in various oil phases.

[3] = Long-term storage stability of emulsions (assay, pH, particle size); assay type: physicochemical; conditions: Compound A emulsions; over 14 months at any of the storage conditions tested
Experimental: Calcimimetics emulsions for long-term studies were prepared at 5 mg/mL drug concentration, 5% SBO, 2% egg lecithin, 2% glycerin, 20 mM TRIS buffer at pH 9. The emulsions were packed in glass vials at 20 mL each and stored inverted in stability chambers. At each time-point, 3 vials from each chamber were pulled and analyzed for the calcimimetic concentration, pH and particle size. […] The values for pH dropped over time, with greater magnitude of drop seen at higher temperature.

[4] = Loss in drug strength due to adsorption to PVC tubing; assay type: physicochemical
Experimental: A solution of compound A was prepared in acetate mannitol buffer at pH 4. At this pH, the compound forms a clear solution of concentration 0.2 mg/mL. An equivalent emulsion was prepared at the same concentration with 5% soybean oil, 2% lecithin, 2% glycerin and 20 mM TRIS buffer at pH 9. PVC tubing was selected as an example of commonly used intravenous infusion set. 15 cm sections of this tube were filled with either the solution or emulsion formulation and clamped on both ends. These filled tubes were held at the ambient temperature for 1 hour. The formulations inside were collected and analyzed for drug content using reversed phase HPLC. […] Panel A: Compound A in acetate/mannitol solution, pre-exposure. Panel B: compound A in acetate/mannitol solution, after 1 hour of exposure to the PVC tubing. Panel C: compound A formulated in the emulsion of the invention, pre-exposure. Panel D: compound A formulated in the emulsion of the invention, pre-exposure, after 1 hour of exposure to the PVC tubing.

[5] = Zeta potential titration of emulsions (droplet charge vs pH); assay type: physicochemical; conditions: SBO 10%, Lecithin 2% at pH 7; 5 mg/mL (formulation #1) versus 1 mg/mL (formulation #2)
Experimental: Panel A, titration results of 1% EYP/10% SBO in 1 mM dibasic phosphate. Panel B, titration results of cinacalcet/1% EYP/10% SBO in 1 mM dibasic phosphate. Other components of the emulsions include 10% soybean oil, 1% egg lecithin, 2.25% glycerin and water. Panel C, titration results for Compound A. Emulsion composition: SBO 10%, Lecithin 2% at pH 7. Concentration of Compound A was 5 mg/mL for formulation #1 and 1 mg/mL for formulation #2.
The zeta potential measurements were made on a Malvern Zetasizer 4 laser-scattering particle electrophoretic analyzer that measures the electrophoretic mobility and zeta potential distribution. Samples were prepared for the zeta potential titration by diluting the emulsion approximately 2500 fold in 1 mM dibasic phosphate pH 9 and titrating the solution with 100 mM phosphoric acid in 0.5 pH unit increments. […] Theoretically, the emulsions are stabilized by this charge, which prevents the droplets from coalescing. […] In contrast, the cinacalcet emulsions achieve charge neutrality in the range of pH 7-7.5.

[6] = target: cytochrome P450 2D6 (Homo sapiens, UniProt P10635); conditions: stated as known; cited from earlier work
[7] = emulsion with TRIS buffer 20 mM, pH 9, 2-hour infusion, 2 mg/kg (conc. 5 mg/mL), 0 h
[8] = emulsion with TRIS buffer 20 mM, pH 9, 2-hour infusion, 2 mg/kg (conc. 5 mg/mL), 48 h
[9] = emulsion with TRIS buffer 20 mM, pH 9, 2-hour infusion, 6 mg/kg (conc. 5 mg/mL), 0 h
[10] = emulsion with TRIS buffer 20 mM, pH 9, 2-hour infusion, 6 mg/kg (conc. 5 mg/mL), 48 h
[11] = solution in acetate mannitol buffer, pH 4, 2 hour infusion, 1 mg/kg (conc. 0.1 mg/mL), 0 h
[12] = solution in acetate mannitol buffer, pH 4, 2 hour infusion, 1 mg/kg (conc. 0.1 mg/mL), 48 h

Chain of cytochrome P450 2D6 (P10635 whole entry, the tested form may be a part): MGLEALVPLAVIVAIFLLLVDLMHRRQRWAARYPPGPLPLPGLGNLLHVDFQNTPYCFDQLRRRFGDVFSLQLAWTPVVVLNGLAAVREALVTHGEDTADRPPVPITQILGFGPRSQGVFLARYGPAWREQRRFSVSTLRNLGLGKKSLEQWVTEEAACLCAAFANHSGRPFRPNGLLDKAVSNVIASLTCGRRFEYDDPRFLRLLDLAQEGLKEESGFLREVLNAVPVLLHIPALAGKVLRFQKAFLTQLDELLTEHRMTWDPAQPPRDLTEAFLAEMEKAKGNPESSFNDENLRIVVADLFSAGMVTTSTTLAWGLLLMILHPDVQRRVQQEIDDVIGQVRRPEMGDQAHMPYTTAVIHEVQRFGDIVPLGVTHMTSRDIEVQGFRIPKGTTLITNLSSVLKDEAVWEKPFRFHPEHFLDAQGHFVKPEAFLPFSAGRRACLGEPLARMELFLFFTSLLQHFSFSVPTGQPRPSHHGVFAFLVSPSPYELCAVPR

Compound: COc1ccc(CN[C@H](C)c2ccccc2)cc1-c1ccc(C(F)(F)F)cc1 [Compound A, (1R)—N-((6-(methyloxy)-4′-(trifluoromethyl)-1,1′-biphenyl-3-yl)methyl)-1-phenylethanamine]
local venous toxicity ([1]; dosed as a solution): evidence of local venous toxicity | effect on the vasculature ([1]; emulsion containing Compound A): protective effect on the vasculature | Edema [1, 7]: 0.0 ± 0.0 | Erythema [1, 7]: 0.0 ± 0.0 | Edema [1, 8]: 0.0 ± 0.0 | Erythema [1, 8]: 0.0 ± 0.0 | Edema [1, 9]: 0.0 ± 0.0 | Erythema [1, 9]: 0.0 ± 0.0 | Edema [1, 10]: 0.0 ± 0.0 | Erythema [1, 10]: 0.0 ± 0.0 | Histopathology: severity and incidence of edema, hemorrhage and subacute inflammation ([1]; emulsion with TRIS buffer 20 mM, pH 9, 2-hour infusion, 2 and 6 mg/kg, compared to the solution): much lower in all thee animals as compared | Edema [1, 11]: 0.0 ± 0.0 | Erythema [1, 11]: 0.0 ± 0.0 | Edema [1, 12]: 0.0 ± 0.0 | Erythema [1, 12]: 1.3 ± 2.3 | Histopathology: severity and incidence of edema, hemorrhage and subacute inflammation ([1]; solution in acetate mannitol buffer, pH 4, 2 hour infusion, 1 mg/kg, compared to placebo): higher in the ears treated with Compound A | solubility at 18 h [2]: > 300 mg/mL | change in particle size [3]: No change | difference in concentration of drug before or after exposure to tubing ([4]; 0.2 mg/mL emulsion (5% soybean oil, 2% lecithin, 2% glycerin, 20 mM TRIS, pH 9), 1 hour): no significant difference | drug concentration after 1 hour holding in the tubing ([4]; 0.2 mg/mL solution in acetate mannitol buffer at pH 4, ambient temperature): about 50 % of initial concentration | pH at which emulsion reaches neutral charge [5]: reaches neutral charge at a higher pH

Compound: COc1ccc(CN[C@H](C)c2cccc3ccccc23)cc1-c1ccc(OC(F)(F)F)cc1 [Compound B, (1R)—N-((6-(methyloxy)-4′-((trifluoromethyl)oxy)-1,1′-biphenyl-3-yl)methyl)-1-(1-naphthalenyl)ethanamine]
solubility at 18 h [2]: 50 mg/mL (≈ 111 mM)

Compound: COc1ccc(CN[C@H](C)c2cccc(F)c2)cc1-c1ccc(C(F)(F)F)cc1 [Compound D, (1R)-1-(3-fluorophenyl)-N-((6-(methyloxy)-4′-(trifluoromethyl)-1,1′-biphenyl-3-yl)methyl)ethanamine]
solubility at 18 h [2]: > 300 mg/mL

Compound: CCn1cc(-c2cccc(C(F)(F)F)c2)c2cc(CN[C@H](C)c3ccccc3)ccc21 [Compound F, (1R)—N-((1-ethyl-3-(3-(trifluoromethyl)phenyl)-1H-indol-5-yl)methyl)-1-phenylethanamine]
solubility at 18 h [2]: > 300 mg/mL

Compound: C[C@@H](NCc1ccc(Cl)c(-c2ccc(OC(F)(F)F)cc2)c1)c1cccc2ccccc12 [Compound H, (1R)—N-((6-chloro-4′-((trifluoromethyl)oxy)-3-biphenyl)methyl)-1-(1-naphthalenyl)ethanolamine]
Solubility [2]: >50 mg/mL

Compound: C[C@@H](NCCCc1cccc(C(F)(F)F)c1)c1cccc2ccccc12 [Sensipar]
metabolism [6]: metabolized by cytochrome P450 2D6

Second part, the compound after the results:

solubility at 18 h [2]: > 300 mg/mL
Compound: COc1ccc(CN[C@H](C)c2ccccc2)cc1-c1ccc(OC(F)(F)F)cc1 [Compound C, (1R)—N-((6-(methyloxy)-4′-((trifluoromethyl)oxy)-1,1′-biphenyl-3-yl)methyl)-1-phenylethanamine]

solubility at 18 h [2]: > 300 mg/mL
Compound: COc1ccc(CN[C@H](C)c2cccc(Cl)c2)cc1-c1ccc(C(F)(F)F)cc1 [Compound E, (1R)-1-(3-chlorophenyl)-N-((6-(methyloxy)-4′-(trifluoromethyl)-1,1′-biphenyl-3-yl)methyl)ethanamine]

Solubility [2]: >50 mg/mL
Compound: COc1ccc([C@@H](C)N[C@H](C)c2ccccc2)cc1-c1ccc(C(F)(F)F)cc1 [Compound G]
